The nature of data set [1]: Drug release triggered by the S-S bond on addition of dithiothreitol and glutathione. It is filed as physicochemical. Particulars: dithiothreitol and glutathione (reduced form) added to the nano-prodrug. From the text: (§1) Then, nanoparticles were produced. […] The present invention is based on these new findings. Therefore, the present invention provides the following items: […]

Data set [2] in a line: Nanoparticle aqueous dispersion, particle size and aggregation by SEM and DLS. The following applies: 0.1 mM aqueous dispersion of nanoparticles. It is filed as physicochemical. The procedure:
100 μL of THF solution of compound A or B prepared to 10 mM was injected into 10 mL of water using a syringe at room temperature, followed by stirring for 2 seconds at 1500 rpm, thereby obtaining an aqueous dispersion of nanoparticles. The concentration of the final aqueous dispersion was 0.1 mM.
100 μL of DMSO or THF solution of each compound prepared to 10 mM was injected into 10 mL of water using a syringe at room temperature, followed by stirring for 2 seconds at 1500 rpm, thereby obtaining an aqueous dispersion of nanoparticles. The concentration of the final aqueous dispersion was 0.1 mM.

The test system of data set [3] is Human liver cancer cell line HePG2 or human breast cancer cell line KPL-4. Briefly: In vitro activity test, Test Example 1 (cell viability, Cell Counting Kit-8). It is filed as cell-based. Particulars: nanoparticle dispersion, 0.04 to 10 μM, 48 hours. The procedure:
(§2) Human liver cancer cell line HePG2 or human breast cancer cell line KPL-4 was seeded in a 96-well plate at 2×10^4 cells/well. On the next day, irinotecan and each SN-38 derivative (compound A ((SN-38×C6 dimer (S—S, ester)), compound B (SN-38×C6 dimer (S—S, carbonate))) nanoparticle dispersion were added to the HepG2 cell culture medium to 0.04 to 10 μM. Then, the cells were cultured for 48 hours, and the cell viability was measured by a colorimetric method using the Cell Counting Kit-8 (produced by Dojindo Laboratories) and a microplate reader.

A short description of data set [4]: Dispersion stability of the nano-prodrug. It is filed as physicochemical.
From the text: as §1

Data set [5] deals with human mammary epithelial cell line HMEC. Briefly: In vitro activity test, Test Example 4, normal cell. It is filed as cell-based. The procedure: as §2
(§3) As in Test Example 1, human colon cancer cell line HCT-116 or human mammary epithelial cell line HMEC was seeded in a 96-well plate at 2×10^4 cells/well. On the next day, SN-38 and the SN-38 derivative (SNC4DC) nanoparticle dispersion were added to the cell culture medium to 0.04 to 10 μM. Then, the cells were cultured for 48 hours, and the cell viability was measured by a colorimetric method using the Cell Counting Kit-8 (produced by Dojindo Laboratories) and a microplate reader.

Data set [6] deals with human colon cancer cell line HCT-116. Briefly: In vitro activity test, Test Example 4, cancer cell. The following applies: HCT-116 (Cancer cell), 48 hours, read-out: cell viability IC50. It is filed as cell-based. The procedure: as §2, §3

pIC50: −log10 of the molar value.

For the compound `CCCCCC(=O)Oc1ccc2nc3c(c(CC)c2c1)Cn1c-3cc2c(c1=O)COC(=O)[C@@]2(CC)OC(=O)CCCSSCCCC(=O)O[C@]1(CC)C(=O)OCc2c1cc1n(c2=O)Cc2c-1nc1ccc(OC(=O)CCCCC)cc1c2CC` [compound A], in data set [1], the “cleavage of the S-S bond” value was “the cleavage of the S—S bond proceeded somewhat” and the “formation of C6 acyloxy-substituted SN-38 derivative (drug release)” value was “not confirmed”. Also, the particle size result in data set [2] is given as “about 100 nm”. In addition, in data set [3], the “pharmacological activity (cell viability, FIG. 1)” value is reported as “did not exhibited good pharmacological activity”. In addition, the dispersion stability in data set [4] was no less than 7 days.

A word on the pIC50: it is the negative decadic logarithm of the IC50, by convention in mol/L. Consider `CCc1c2c(nc3ccc(O)cc13)-c1cc3c(c(=O)n1C2)COC(=O)[C@]3(O)CC` [SN-38], for which, in data set [5] (HMEC, in words from Table 4), the “toxicity to normal cells” value is “highly toxic to normal cells”. Moreover, the pIC50 in data set [5] (Homo sapiens, HMEC (Normal cell), 48 hours, read-out: cell viability IC50) is 6.26; in data set [6] it was 7.40.

The values above are taken from patent US20240300979A1, “SN-38 DERIVATIVE, NANO-PARTICLES CONTAINING SAID DERIVATIVE, MEDICINE, AND METHOD FOR PRODUCING SAID NANO-PARTICLES” (JAPAN SCIENCE AND TECHNOLOGY AGENCY, priority 2021, published 2024).
